The source of these data is US11457626B2, “Method for impairing a Cassie-Baxter state” (priority 2016, dated 2022).

For one data set, the system named is demodex mites. As to conditions: mineral oil as control and solvent; cited from earlier work.
A short description of data set [1]: acidity relative to oxalic acid. The data set is classed as physicochemical. An excerpt: Further, their respective salts, sodium dipicolinate and monosodium phosphate both have essentially neutral pHs and both are known, powerful natural coordination complex chelators that prefer calcium over sodium in all but basic pH environments. […] This calcium coordination effect is why acidic anions dipicolinic acid and phosphoric acid, as well as their respective salts, are commonly used detergent ingredients (European Patent No. EP 0358472 A2, Detergent Compositions). In addition, phosphates (the phosphoric acid salts) are so safe and non-toxic that they are used as food additives and as emulsifiers.

Data set [2] can be described thus: solubility / dispersibility of dipicolinic acid in vehicles. The data set is classed as physicochemical. An excerpt:
As natural emulsifiers, the use of phosphates also greatly expands the possible range of usable solution/suspensions available for the present invention to concomitantly include, along with these phosphates, other arthropod plastron chemical degraders, such as carboxylic, dipicolinic, oxalic acids and their respective salts, as well as terpenes and low molecular weight non-polar alkanes, including cyclic alkanes. Dipicolinic acid is also dually beneficially to this plastron degrading effect because it is also a potent anti-inflammatory PLA2 inhibitor and thus would help reduce the concomitant skin inflammation associated with demodex infestations (U.S. Pat. No. 6,127,393, Antiproliferative, antiinfective, antiinflammatory, autologous immunization agent and method). […] However, the inventor has discovered that dipicolinic acid is soluble in glycerin, a common skin product ingredient, and is colloidal in low molecular weight non-polar solutions and in hyaluronic acid (a very high molecular weight […] common to the eye).

The conditions of data set [3]: cited from earlier work.
Another data set concerns PLA2. As to conditions: anti-inflammatory; cited from earlier work.

For `CC1=CCC(O)(C(C)C)CC1` (centres unmarked) [terpinen-4-ol], the “activity against demodex mites among tea tree oil ingredients” value in the data set on demodex mites is recorded as “most active ingredient”.

`O=P(O)(O)O` [phosphoric acid]: the “times less acidic than oxalic acid” value in data set [1] is on record as “about 10 times”.

As for `O=C(O)c1cccc(C(=O)O)n1` [dipicolinic acid], in data set [2] (glycerin), the solubility in glycerin entry is “soluble”. Further, in data set [2] (hyaluronic acid), the “state in hyaluronic acid” value was “colloidal”. In data set [2] (low molecular weight non-polar solutions), the “state in low molecular weight non-polar solutions” value is given as “colloidal”. Also, the “times less acidic than oxalic acid” value in data set [1] is on record as “about 10 times”. Further, the solubility in water result in data set [3] is reported as “limited solubility”. In the data set with PLA2, the PLA2 inhibition entry is “potent”.
